ChEMBL document CHEMBL1201862, “PubChem BioAssay data set” (2004)
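48-hour exposure; five concentrations; linearly interpolated endpoints. GI50: concentration for 50% inhibition of growth.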 Calls of active or inactive are those of the source. No stated cut-off is given here; in the data, active = GI50 up to about 1.1 µM and inactive = higher.

Experiments:
Test in all cases: NCI-60 cell line screen, 48 h
NCI-H522 = system: NCI-H522
T47D = system: T47D
SK-OV-3 = system: SK-OV-3
NCI-H23 = system: NCI-H23
SF-539 = system: SF-539
TK-10 = system: TK-10
ACHN = system: ACHN
RXF 393 = system: RXF 393
DU-145 = system: DU-145
U-251 = system: U-251
HCT-15 = system: HCT-15
SK-MEL-5 = system: SK-MEL-5
HOP-92 = system: HOP-92
MDA-MB-231 = system: MDA-MB-231
COLO 205 = system: COLO 205
BT-549 = system: BT-549
KM12 = system: KM12
HL-60 = system: HL-60
OVCAR-4 = system: OVCAR-4
A549 = system: A549

| Structure (SMILES) | GI50 (NCI-H522) | GI50 (T47D) | GI50 (SK-OV-3) | GI50 (NCI-H23) | GI50 (SF-539) | GI50 (TK-10) | GI50 (ACHN) | GI50 (RXF 393) | GI50 (DU-145) | GI50 (U-251) | GI50 (HCT-15) | GI50 (SK-MEL-5) | GI50 (HOP-92) | GI50 (MDA-MB-231) | GI50 (COLO 205) | GI50 (BT-549) | GI50 (KM12) | GI50 (HL-60) | GI50 (OVCAR-4) | GI50 (A549) |
| --- | --- | --- | --- | --- | --- | --- | --- | --- | --- | --- | --- | --- | --- | --- | --- | --- | --- | --- | --- | --- |
| CCOC(=O)C(NC(=O)c1ccccc1)(Nc1cc(C)on1)C(F)(F)F (stereo not given) | > 100 µM (inactive) | > 100 µM (inactive) | > 100 µM (inactive) | > 100 µM (inactive) | > 100 µM (inactive) | > 100 µM (inactive) | > 100 µM (inactive) | > 100 µM (inactive) | > 100 µM (inactive) | > 100 µM (inactive) | > 100 µM | > 100 µM (inactive) | > 100 µM (inactive) | 10.9 µM (inactive) | > 100 µM (inactive) | > 100 µM (inactive) | > 100 µM (inactive) | > 100 µM (inactive) | > 100 µM (inactive) | > 100 µM (inactive) |
| COc1cc2c(cc1OCCN1CCN(CCOc3cc4c(cc3OC)C(=O)N3CCC[C@H]3C=N4)CC1)N=C[C@@H]1CCCN1C2=O | 12.1 µM (inactive) | 25.4 µM (inactive) | > 100 µM (inactive) | 17.1 µM (inactive) | 10.2 µM (inactive) | 23.8 µM (inactive) | > 39.1 µM (inactive) | 26.1 µM (inactive) | 37.5 µM (inactive) | 24.8 µM (inactive) | > 64.1 µM | 17.8 µM (inactive) | 0.906 µM (active) | 17.6 µM (inactive) | 24 µM (inactive) | 21.5 µM (inactive) | 30.8 µM (inactive) | 4.3 µM (inactive) | > 100 µM (inactive) | > 88.9 µM (inactive) |
| CCOC(=O)[C@@]1(C)CC(O)C(=O)N1C (stereo not given in full) | > 100 µM (inactive) | > 100 µM (inactive) | > 100 µM (inactive) | > 100 µM (inactive) | > 100 µM (inactive) | > 100 µM (inactive) | > 100 µM (inactive) | > 100 µM (inactive) | > 100 µM (inactive) | > 100 µM (inactive) | > 100 µM | > 100 µM (inactive) | > 100 µM (inactive) | > 100 µM (inactive) | > 100 µM (inactive) | > 100 µM (inactive) | > 100 µM (inactive) | > 100 µM (inactive) | > 100 µM (inactive) | > 100 µM (inactive) |
| CC(=O)OCC1OC(c2c(OC(C)=O)cc(C)c3c(=O)cc(/C(C(C)=O)=C(\C)O)oc23)C(OC(C)=O)C(OC(C)=O)C1OC(C)=O (stereo not given) | > 100 µM (inactive) | > 100 µM (inactive) | > 100 µM (inactive) | > 100 µM (inactive) | > 100 µM (inactive) | > 100 µM (inactive) | > 100 µM (inactive) | > 100 µM (inactive) | > 100 µM (inactive) | > 100 µM (inactive) | > 100 µM | > 100 µM (inactive) | > 100 µM (inactive) | > 100 µM (inactive) | > 100 µM (inactive) | > 100 µM (inactive) | > 100 µM (inactive) | > 100 µM (inactive) | > 100 µM (inactive) | > 100 µM (inactive) |
| O=C1C=C(Nc2nc(O)cc(C(=O)O)n2)c2ccccc2C1=O | > 100 µM (inactive) | > 100 µM (inactive) | > 100 µM (inactive) | > 100 µM (inactive) | > 100 µM (inactive) | > 100 µM (inactive) | > 100 µM (inactive) | > 100 µM (inactive) | > 100 µM (inactive) | > 100 µM (inactive) | > 100 µM | > 100 µM (inactive) | > 100 µM (inactive) | > 100 µM (inactive) | > 100 µM (inactive) | > 100 µM (inactive) | > 100 µM (inactive) | > 100 µM (inactive) | > 100 µM (inactive) | > 100 µM (inactive) |
| O=[N+]([O-])c1ccccc1OCCOc1ccccc1[N+](=O)[O-] | > 100 µM (inactive) | > 100 µM (inactive) | > 100 µM (inactive) | > 100 µM (inactive) | > 100 µM (inactive) | > 100 µM (inactive) | > 100 µM (inactive) | > 100 µM (inactive) | > 100 µM (inactive) | > 100 µM (inactive) | > 100 µM | > 100 µM (inactive) | 71.8 µM (inactive) | 96.2 µM (inactive) | > 100 µM (inactive) | > 100 µM (inactive) | > 100 µM (inactive) | > 100 µM (inactive) | > 100 µM (inactive) | > 100 µM (inactive) |
| CC1(C)CN=C(Nc2cccc(C(F)(F)F)c2)S1 | > 100 µM (inactive) | > 100 µM (inactive) | > 100 µM (inactive) | > 100 µM (inactive) | > 100 µM (inactive) | > 100 µM (inactive) | > 100 µM (inactive) | > 100 µM (inactive) | > 100 µM (inactive) | > 100 µM (inactive) | > 100 µM | > 100 µM (inactive) | > 100 µM (inactive) | 0.684 µM (active) | > 100 µM (inactive) | > 100 µM (inactive) | > 100 µM (inactive) | 59.3 µM (inactive) | > 100 µM (inactive) | > 100 µM (inactive) |
| C=C1C(=O)O[C@@H]2C[C@@]3(C)CCCC(=C)[C@@H]3C[C@H]12.C=C1C(=O)O[C@@H]2C[C@@]3(C)CCC[C@H](C)C3=C[C@H]12 | 1.38 µM (inactive) | 1.09 µM (active) | 9.79 µM (inactive) | 2 µM (inactive) | 2.13 µM (inactive) | 2.88 µM (inactive) | 2.55 µM (inactive) | 1.56 µM (inactive) | 2.77 µM (inactive) | 3.63 µM (inactive) | 1.55 µM | 1.6 µM (inactive) | 1.9 µM (inactive) | 2.38 µM (inactive) | 1.55 µM (inactive) | 1.45 µM (inactive) | 2.7 µM (inactive) | 1.99 µM (inactive) | 2.7 µM (inactive) | 5.12 µM (inactive) |
| CCC1=CC2Cc3nc4cc(Cl)ccc4c(N)c3C(C1)C2 (stereo not given) | 7.5 µM (inactive) | 2.52 µM (inactive) | 12.1 µM (inactive) | 5.52 µM (inactive) | 9.27 µM (inactive) | 4.38 µM (inactive) | 7.8 µM (inactive) | 2.65 µM (inactive) | 11.2 µM (inactive) | 8.59 µM (inactive) | 7.21 µM | 1.57 µM (inactive) | 1.91 µM (inactive) | 5.58 µM (inactive) | 2.07 µM (inactive) | 15.5 µM (inactive) | 5.78 µM (inactive) | 2.29 µM (inactive) | 3.59 µM (inactive) | 7.59 µM (inactive) |
| COC(=O)C1=C(C(=O)OC)C2OC1c1cc3ccccc3cc12 | 1.3 µM (inactive) | 2.61 µM (inactive) | 18.8 µM (inactive) | 5.96 µM (inactive) | 6.27 µM (inactive) | 5.2 µM (inactive) | 1.63 µM (inactive) | 1.77 µM (inactive) | 7.78 µM (inactive) | 17.3 µM (inactive) | 2.18 µM | 16.9 µM (inactive) | 1.69 µM (inactive) | 17.7 µM (inactive) | 1.82 µM (inactive) | 5.47 µM (inactive) | 23.7 µM (inactive) | 0.0841 µM (active) | 1.78 µM (inactive) | 18.7 µM (inactive) |
